This note sets out measurements from ChEMBL document CHEMBL3817801, “Synthesis and steroid sulfatase inhibitory activities of N-phosphorylated 3-(4-aminophenyl)-coumarin-7-O-sulfamates” (Medchemcomm, 2016).

The IC50 is the concentration that inhibits the measured activity by half. A high value points to a need for much substance.

The target of this assay is T1, Steryl-sulfatase (Homo sapiens, UniProt P08842).
T1 sequence (P08842 whole entry): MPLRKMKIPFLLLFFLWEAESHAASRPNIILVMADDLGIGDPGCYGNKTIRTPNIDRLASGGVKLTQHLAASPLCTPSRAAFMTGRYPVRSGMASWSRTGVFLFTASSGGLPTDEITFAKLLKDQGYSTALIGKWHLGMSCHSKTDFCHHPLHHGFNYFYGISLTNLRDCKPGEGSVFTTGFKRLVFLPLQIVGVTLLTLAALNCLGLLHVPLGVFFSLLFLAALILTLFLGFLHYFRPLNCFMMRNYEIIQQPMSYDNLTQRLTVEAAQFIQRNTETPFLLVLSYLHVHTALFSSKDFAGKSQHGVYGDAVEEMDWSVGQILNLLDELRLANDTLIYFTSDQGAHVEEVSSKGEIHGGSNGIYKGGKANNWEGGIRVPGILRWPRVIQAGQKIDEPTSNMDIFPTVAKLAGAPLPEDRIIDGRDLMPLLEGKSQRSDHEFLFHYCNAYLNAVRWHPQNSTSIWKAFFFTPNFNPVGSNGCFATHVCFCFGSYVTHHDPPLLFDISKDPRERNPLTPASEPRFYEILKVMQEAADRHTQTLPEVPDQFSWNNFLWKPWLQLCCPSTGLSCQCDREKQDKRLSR
The assay can be described thus: Inhibition of human placental steroid sulfatase using p-nitrophenyl sulfate as substrate after 15 mins by microplate reader method.

SMILES strings stand for the structures.

`Cc1cc(=O)oc2cc(OS(N)(=O)=O)ccc12` came in with an IC50 of 1.03 µM.

As for `NS(=O)(=O)Oc1ccc2ccc(=O)oc2c1`, the IC50 was determined as 1.38 µM.

`CCOP(=O)(Nc1ccc(-c2cc3ccc(OS(N)(=O)=O)cc3oc2=O)cc1)OCC` gave an IC50 of 0.51 µM.

As to `CC1(C)COP(=O)(Nc2ccc(-c3cc4ccc(OS(N)(=O)=O)cc4oc3=O)cc2)OC1`, the IC50 stood at 0.45 µM.

Compound `CCCCOP(=O)(Nc1ccc(-c2cc3ccc(OS(N)(=O)=O)cc3oc2=O)cc1)OCCCC` yielded an IC50 of 0.31 µM.

In the case of `NS(=O)(=O)Oc1ccc2cc(-c3ccc(NP4(=O)OCCCO4)cc3)c(=O)oc2c1`, the IC50 was determined as 0.7 µM.

Regarding `NS(=O)(=O)Oc1ccc2cc(-c3ccc(NP(=O)(Oc4ccccc4)Oc4ccccc4)cc3)c(=O)oc2c1`, it took 0.19 µM to reach half-maximal inhibition (IC50).

For the compound `NS(=O)(=O)Oc1ccc2cc(-c3ccc(NP(=O)(OCc4ccccc4)OCc4ccccc4)cc3)c(=O)oc2c1`, the IC50 was determined as 0.24 µM.

With `CC(C)OP(=O)(Nc1ccc(-c2cc3ccc(OS(N)(=O)=O)cc3oc2=O)cc1)OC(C)C`, the IC50 was determined as 0.47 µM.

For `COP(=O)(Nc1ccc(-c2cc3ccc(OS(N)(=O)=O)cc3oc2=O)cc1)OC`, 0.78 µM corresponded to half-maximal inhibition (IC50).
